Earlier results in patent publication US12678439B2 (DOUGLAS PHARMACEUTICALS LIMITED, priority 2018, dated 2026).

solubility in water: virtually insoluble
SMILES: Cc1cccc(C)c1OCC(=O)N[C@@H](Cc1ccccc1)[C@@H](O)C[C@H](Cc1ccccc1)NC(=O)[C@H](C(C)C)N1CCCNC1=O (relative stereo) [Lopinavir, [1S-[1R*(R*), 3R*, 4R*]]—N-[4-[(2,6-dimethylphenoxyl0acetyl]amino]-3-hydroxy-5-phenyl-1-(phenylmethyl)pentyl]tetrahydro-alpha-(1-methylethyl)-2-oxo-1(2H)-pyrimidineacetamide]
